Reference: publication PMC11783601, “Analogue-Sensitive Inhibition of Histone Demethylases Uncovers Member-Specific Function in Ribosomal Protein Synthesis” (Journal of the American Chemical Society, 2025)
Positions count from the first letter of the chain named. Names and notes keep the numbering of the source.

T1: wild type KDM4A (Homo sapiens, UniProt O75164)
T1 construct: human KDM4A-jmjC domain (catalytic domain of KDM4A); 6xHis (N); host or cells: E. coli BL21 (DE3)
T1 sequence (O75164 142-308 limits assumed): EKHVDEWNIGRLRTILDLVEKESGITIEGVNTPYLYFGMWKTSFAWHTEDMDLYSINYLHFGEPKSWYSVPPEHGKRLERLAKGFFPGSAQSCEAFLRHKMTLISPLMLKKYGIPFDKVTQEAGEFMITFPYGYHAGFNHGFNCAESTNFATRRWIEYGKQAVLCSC

T2: KDM4A-F185A (Homo sapiens, UniProt O75164, F185A)
T2 construct: human KDM4A-jmjC domain (catalytic domain of KDM4A); 6xHis (N); host or cells: E. coli BL21 (DE3)
T2 sequence (O75164 142-308 F185A limits assumed): T1 sequence (O75164 142-308 limits assumed) with F44A

B1: wild type KDM4A (Homo sapiens) (protein)
chain: T1 sequence (O75164 142-308 limits assumed)
B2: KDM4A-F185A (Homo sapiens; F185A) (protein)
chain: T1 sequence (O75164 142-308 limits assumed) with F44A

Tests used:
[1] = molecular target: T1, wild type KDM4A; experiment: Coupled fluorescence (FDH/NADH) assay, kinetic parameters with 2OG; format: biochemical; settings: H3K9me3 demethylation, saturating peptide, 2OG as cofactor
[2] = molecular target: T2, KDM4A-F185A; experiment: MALDI-MS end-point demethylase assay on H3K9me3 peptide; format: biochemical
Excerpt: To develop an appropriate inhibitor, we selected N-oxalyl glycine (NOG, 2) scaffold because of its structural similarity with 2OG and the ability to inhibit 2OG-utilizing enzymes including KDMs (Figure 1C).[29]−[31] Substituting −CH2– at C3 of 2OG with −NH– in NOG prevents its oxidative decarboxylation by KDMs, making the inhibitor cofactor-competitive. […] We synthesized a panel of eight NOG analogues (3–10), derived from L-amino acids, carrying varied steric substituents at C4, with the reasoning that a bulky substituent at C4 would selectively fit into the expanded pocket of F185A over wild type KDM4A (Figures 2B and S1–S6, Schemes S1 and S2). The inhibitory effect of each compound was determined based on the extent of enzyme-catalyzed demethylation of a canonical peptide substrate corresponding to the N-terminus of histone 3 carrying trimethylated lysine at position 9 (H3K9me3). […] Such orthogonal inhibition of the engineered demethylase constitutes a powerful chemical probe to study the functions of a specific member of an enzyme family without issues of off-target activity. […]
(§1) assay (Biorad) kit with BSA concentrations as a standard. […]
8. Demethylase activity of the wild type and mutant KDM4 proteins on peptide substrate To monitor enzymatic activity, a demethylase activity assay was optimized and then observed through MALDI-TOF.7 Each histone demethylase assay sample included either wild type or mutant enzyme (10µM KDM4A, 7.5µM KDM4C, 10µM KDM4D, or 1µM KDM4E), 10 µM peptide, 200 µM 2OG, 50 mM Tris pH 8, […], 0-200µM NOG analogue, and 2 mM L-ascorbic acid with a total assay volume of 10 µL. Fe(II) supplement and L-ascorbic acid […]
Lastly, the 2OG and peptide were […]
positive mode and analyzed on Bruker FlexAnalysis software. The percent demethylated peptide […]
(§2) the multiple demethylation events on the peptide. […]
varying concentrations (0-10 µM). […] The fluorescence intensity was measured with excitation = 340 nm and emission = 490 nm on a TECAN Infinite M1000Pro. […]
The set up and analysis for IC50 of L-Leu NOG against KDM4A F185A enzyme was similar to that described in the coupled fluorescence assay section, but adjusted to function as an end point assay. […]
and varying concentration of compounds (NOGs 6, 9 and 10) and a substrate cocktail (200 µM 2OG and 60 µM H3K9me3 peptide). Different concentrations of NOG 6 were measured at one time point ranging for 1-5 hours. For 9 and 10, the same set-up remained, but enzymatic activity was measured via MALDI-TOF analysis, and relative activity and inhibition was calculated for different NOG concentrations as described above. […]
and analyzed on Bruker FlexAnalysis software. The percent demethylated peptide was calculated by first multiplying the K27me1 peak by 2 and the K27me0 peak by 3 to account for the multiple

[3] = molecular target: T1, wild type KDM4A; experiment: as above; format: biochemical; settings: H3K9me3 peptide, 200 µM 2OG, fixed concentration of NOG analogue
Excerpt: To develop an appropriate inhibitor, we selected N-oxalyl glycine (NOG, 2) scaffold because of its structural similarity with 2OG and the ability to inhibit 2OG-utilizing enzymes including KDMs (Figure 1C).[29]−[31] Substituting −CH2– at C3 of 2OG with −NH– in NOG prevents its oxidative decarboxylation by KDMs, making the inhibitor cofactor-competitive. […] We synthesized a panel of eight NOG analogues (3–10), derived from L-amino acids, carrying varied steric substituents at C4, with the reasoning that a bulky substituent at C4 would selectively fit into the expanded pocket of F185A over wild type KDM4A (Figures 2B and S1–S6, Schemes S1 and S2). The inhibitory effect of each compound was determined based on the extent of enzyme-catalyzed demethylation of a canonical peptide substrate corresponding to the N-terminus of histone 3 carrying trimethylated lysine at position 9 (H3K9me3). […] Such orthogonal inhibition of the engineered demethylase constitutes a powerful chemical probe to study the functions of a specific member of an enzyme family without issues of off-target activity.
as §1
8. […]
2 mM L-ascorbic acid with a total assay volume of 10 µL. Fe(II) supplement and L-ascorbic acid
Lastly, the 2OG and peptide were
positive mode and analyzed on Bruker FlexAnalysis software. The percent demethylated peptide
as §2

[4] = substrate: O=C(O)CCC(=O)C(=O)O; experiment: purified protein, by the assay type; settings: other: saturating H3K9me3 peptide; pH 8.0; 37.0 °C

Row | Molecule | IC50 [2] [µM] | Km [4] [µM] | other results
1 | O=C(O)CCC(=O)C(=O)O [compound 1, 2-oxoglutarate] | – | – | kcat ([1]; listed as 2OG): 0.26 ± 0.01 min^–1; kcat ([1]; listed as 2OG 1): 0.2562±0.0072 min^–1
2 | O=C(O)CNC(=O)C(=O)O [compound 2, N-oxalyl glycine, reference compound] | – | – | inhibition of F185A mutant demethylase activity (MALDI-MS) ([2]; H3K9me3 peptide, 200 µM 2OG, fixed concentration of NOG analogue): weakly inhibited; inhibition of wild type KDM4A demethylase activity (MALDI-MS) [3]: weakly inhibited
3 | O=C(O)C(=O)N[C@@H](Cc1ccccc1)C(=O)O [compound 9, phenylalanine NOG] | 28.7 ± 1.3 | – | –
4 | O=C(O)C(=O)N[C@@H](CC1CCCCC1)C(=O)O [compound 10, cyclohexyl NOG] | 4.7 ± 1.7 | – | –
5 | B1 | – | 7.52 ± 1.2 | –
6 | B2 | – | 52 ± 11 | –
